Test results from ChEMBL document CHEMBL1151573, “Cyclic homopentapeptides 3. Synthetic modifications to the capreomycins and tuberactinomycins: Compounds with activity against methicillin-resistant Staphylococcus aureus and vancomycin-resistant enterococci” (1997).
Converted amounts (≈) assume the structure as drawn. Numbered stars: 1 amine (or outer) side, 2 acyl side, 3 side chain; on linkers, the order of the positions; unused ones are H or OH. Bridge positions count the residues as written; N and C are the ends. Square brackets hold non-standard residues; d marks the D form. Side chains are listed from the residue outwards. Peptide text beside a SMILES is read from it. * marks the point of attachment. ξ: configuration not given here. NH(4-cHex-phenyl) = c1cc(C2CCCCC2)ccc1N*; X1 = NC1=NCCC([C@H](N[*:1])C(=O)[*:2])N1; X2 = N=C1NCCC([C@H](N[*:1])C(=O)[*:2])N1; ΔAla(Z-3-ureido) = NC(=O)N/C=C(\N)C(=O)O; ΔDap(Z) = O=C(/C(=C/N[*:3])N[*:1])[*:2]; β3hR = N=C(N)NCCC[C@H](N)CC(=O)O; β3hOrn = NCCC[C@H](N)CC(=O)*; ξβ3hOrn = NCCCC(N)CC(=O)*; Dap = NC[C@H](N)C(=O)O; X3 = NCC[C@H](O)C(=O)*; CO = O=C([*:1])[*:2]; ξDap = NCC(N)C(=O)O

Columns and labels:
[1] = Antibacterial activity against Enterococcus faecium (vancomycin-resistant, erythromycin-resistant, ciprofloxacin-resistant); type: functional
Staphylococcus aureus = assay: Antibacterial activity against Staphylococcus aureus (erythromycin- resistant, methicillin-resistant, ciprofloxacin- resistant) was determined; type: functional
[2] = Antibacterial activity against Enterococcus faecalis (vancomycin-resistant, methicillin-resistant, ciprofloxacin-resistant); type: functional, erythromycin faecalis

NC1=NC([C@H]2NC(=O)/C(=C/NC(=O)Nc3ccc(C4CCCCC4)cc3)NC(=O)[C@@H](CO)NC(=O)[C@@H](CO)NC(=O)C(NC(=O)Nc3ccc(Br)cc3)CNC2=O)CCN1 (stereo not given in full)
MIC [1]: 6.25 µg/mL (≈ 6.96 µM) | MIC (Staphylococcus aureus): 12.5 µg/mL (≈ 13.9 µM) | MIC [2]: 12.5 µg/mL (≈ 13.9 µM)

O=C(N/N=C/c1cccc2c(OCc3ccc(OC(F)(F)F)cc3)cccc12)c1ccc(O)c(Cl)c1
MIC [1]: 3.12 µg/mL (≈ 6.06 µM) | MIC (Staphylococcus aureus): 25 µg/mL (≈ 48.6 µM) | MIC [2]: 12.5 µg/mL (≈ 24.3 µM)

NC(N)=NCCC[C@H](N)CC(=O)NC[C@@H]1NC(=O)[C@H](CO)NC(=O)C(N)CNC(=O)[C@H](C2CCN=C(N)N2)NC(=O)/C(=C/NC(=O)Nc2ccc(C3CCCCC3)cc2)NC1=O (stereo partly drawn) (H-[ξDap]S[Dap](β3hR)[ΔDap(Z)]([CO-NH(4-cHex-phenyl)])[X1]; lactam 1-C)
MIC [1]: 3.12 µg/mL (≈ 3.59 µM) | MIC (Staphylococcus aureus): 1.56 µg/mL (≈ 1.8 µM) | MIC [2]: 3.12 µg/mL (≈ 3.59 µM)

NCCCNCCC(=O)NC1CNC(=O)[C@@H](C2CCN=C(N)N2)NC(=O)/C(=C/Nc2ccc(Cl)c(Cl)c2)NC(=O)[C@@H](CO)NC(=O)[C@@H](CO)NC1=O (stereo not given in full)
MIC [1]: 50 µg/mL (≈ 64.8 µM) | MIC (Staphylococcus aureus): 50 µg/mL (≈ 64.8 µM) | MIC [2]: 50 µg/mL (≈ 64.8 µM)

C[C@@H]1NC(=O)[C@@H](N)CNC(=O)[C@H](C2CCNC(=N)N2)NC(=O)/C(=C/NC(N)=O)NC(=O)[C@H](CNC(=O)CC(N)CCCN)NC1=O.N=C1NCCC([C@@H]2NC(=O)/C(=C/NC(N)=O)NC(=O)[C@H](CNC(=O)CC(N)CCCN)NC(=O)[C@H](CO)NC(=O)[C@@H](N)CNC2=O)N1 (stereo partly drawn) [CAPREOMYCIN] (H-[Dap]S[Dap](ξβ3hOrn)[ΔAla(Z-3-ureido)][X2]; lactam 1-C)
MIC [1]: > 1000 µg/mL | MIC (Staphylococcus aureus): 100 µg/mL | MIC [2]: > 1000 µg/mL

CN[C@H](CC(C)C)C(=O)N[C@H]1C(=O)N[C@@H](CC(N)=O)C(=O)N[C@H]2C(=O)N[C@H]3C(=O)N[C@H](C(=O)N[C@H](C(=O)O)c4cc(O)cc(O)c4-c4cc3ccc4O)[C@H](O)c3ccc(c(Cl)c3)Oc3cc2cc(c3O[C@@H]2O[C@H](CO)[C@@H](O)[C@H](O)[C@H]2O[C@H]2C[C@](C)(N)[C@H](O)[C@H](C)O2)Oc2ccc(cc2Cl)[C@H]1O [VANCOMYCIN]
MIC [1]: > 100 µg/mL | MIC (Staphylococcus aureus): 0.78 µg/mL (≈ 0.538 µM) | MIC [2]: > 100 µg/mL

NCC1NC(=O)[C@H](CO)NC(=O)[C@H](CO)NC(=O)C(NC(=O)Nc2ccc(C3CCCCC3)cc2)CNC(=O)[C@H](C2CCN=C(N)N2)NC1=O (stereo not given in full) ({NH(4-cHex-phenyl)-CO}-[ξDap]SS[ξDap][X1]; lactam 1-C)
MIC [1]: > 100 µg/mL | MIC (Staphylococcus aureus): > 100 µg/mL | MIC [2]: > 100 µg/mL

NCCC[C@H](N)CC(=O)NC[C@@H]1NC(=O)[C@H](CO)NC(=O)C(NC(=O)[C@@H](O)CCN)CNC(=O)[C@H](C2CCN=C(N)N2)NC(=O)/C(=C/NC(=O)Nc2ccc(C3CCCCC3)cc2)NC1=O (stereo partly drawn) (X3-[ξDap]S[Dap](β3hOrn)[ΔDap(Z)]([CO-NH(4-cHex-phenyl)])[X1]; lactam 1-C)
MIC [1]: 6.25 µg/mL (≈ 6.73 µM) | MIC (Staphylococcus aureus): 3.12 µg/mL (≈ 3.36 µM) | MIC [2]: 6.25 µg/mL (≈ 6.73 µM)

NCC[C@@H](O)[C@H](N)CC(=O)NC1CNC(=O)[C@@H](C2CCN=C(N)N2)NC(=O)/C(=C/Nc2ccc(Cl)c(Cl)c2)NC(=O)[C@@H](CO)NC(=O)[C@@H](CO)NC1=O (stereo not given in full)
MIC [1]: 25 µg/mL (≈ 31.7 µM) | MIC (Staphylococcus aureus): 12.5 µg/mL (≈ 15.9 µM) | MIC [2]: 50 µg/mL (≈ 63.5 µM)

NCCC[C@H](N)CC(=O)NC[C@@H]1NC(=O)[C@H](CO)NC(=O)C(N)CNC(=O)[C@H](C2CCN=C(N)N2)NC(=O)/C(=C/NC(=O)Nc2ccc(C3CCCCC3)cc2)NC1=O (stereo partly drawn) (H-[ξDap]S[Dap](β3hOrn)[ΔDap(Z)]([CO-NH(4-cHex-phenyl)])[X1]; lactam 1-C)
MIC [1]: 3.12 µg/mL (≈ 3.77 µM) | MIC (Staphylococcus aureus): 1.56 µg/mL (≈ 1.89 µM) | MIC [2]: 3.12 µg/mL (≈ 3.77 µM)
